Data: patent publication US12642759B2, “Cosmetic composition for improving skin containing extracts of polygala tenuifolia, angelica dahurica and elsholtzia splendens” (SOOY-K CO., LTD., priority 2023, dated 2026)

What was measured:
[1] = DPPH radical scavenging assay; type: biochemical; settings: concentration 50 μg/mL, positive control
Experimental: Antioxidant efficacy was measured by DPPH radical scavenging activity based on the Blois' method. This assay is one of the generation methods. DPPH is purple in the radical state, and when reduced by receiving electrons, it changes its color to yellow (DPPH-H). 100 μL of 0.2 mM DPPH solution and 80 μL of samples of each concentration were mixed in a 96-well plate, reacted for 30 minutes at room temperature in the dark, and then absorbance was measured at 517 nm to calculate radical scavenging activity according to Equation 1 below. Ascorbic acid, an antioxidant, was used as a positive control, and a DPPH solution which was not treated with a sample was used as a negative control. [formula] ABTS Radical Scavenging Assay

[2] = ABTS radical scavenging assay; type: biochemical; settings: concentration 50 μg/mL, positive control
Experimental: Antioxidant activity was measured using […] (ABTS) radical with reference to the Van den Berg method. This method uses the principle that ABTS+ radical, which has a blue-green color, is made to be transparent by antioxidants. 7 mM ABTS and 2.4 mM potassium persulfate were mixed and left at room temperature in the dark for 24 hours to form ABTS. Absorbance was measured at 734 nm, and the material was used for the experiment after adjusting the absorbance to 0.7±0.1. 100 μL of ABTS working solution and 100 μL of samples of each concentration were mixed and reacted in the dark for 10 minutes. Then, the absorbance was measured at […] and the radical scavenging activity was calculated as shown in Equation 2 below. Ascorbic acid, an antioxidant, was used as a positive control, and an ABTS solution which was not treated with a sample was used as a negative control. [formula] 1-5. Cell Culture

Staphylococcus aureus = assay: Antibacterial activity, paper disc method; type: cell-based; settings: 4 mg/mL, positive control, 8 mm paper disc, read-out: Clear zone
Experimental: The antibacterial effect was measured against Staphylococcus aureus (S. aureus). The paper disc method was used to measure the antibacterial activity of the samples. Each strain cultured on a solid plate medium was taken by a platinum loop, then inoculated into a 4 mL liquid medium, and cultured for 20 hours to activate it. Then, 500 μL of the strain was inoculated into 3 mL of liquid medium and cultured for 4 hours. The strain was inoculated onto a solid plate medium so that the number of bacteria was 1×10^6-5×10^6/mL, and then spread evenly using a spreader. Each sample was prepared according to the concentrations, and 50 μL of the sample was absorbed into a paper disc (Toyo, Japan) with a diameter of 8 mm. The paper disc was placed on a solid plate medium inoculated with the strain and cultured at 37° C. for 20 hours. Then, the diameter of the clear zone around the disc was measured. Disc diffusion test is performed by placing a disc into which a sample was absorbed on an agar plate medium inoculated with bacteria and culturing them, and then measuring the diameter of the inhibition zone (clear zone) of the sample that diffused around the disc as much as it inhibited the growth of the bacteria.

Row | SMILES | DPPH radical scavenging activity (antioxidant activity) [1] [%] | ABTS radical scavenging activity (antioxidant activity) [2] [%] | zone of inhibition at 4000 µg/mL (Staphylococcus aureus) [mm]
1 | O=C1O[C@H]([C@@H](O)CO)C(O)=C1O [Ascorbic acid, ascorbic acid] | 87.21±0.56 | 99.68±0.21 | –
2 | COC(=O)c1ccc(O)cc1 [Methyl paraben] | – | – | 8.5
